From patent publication US20150352108A1, “AMINO-PYRIMIDINE COMPOUNDS AS INHIBITORS OF TBK1 AND/OR IKK EPSILON” (Alzheimer's Institute of America, priority 2009, published 2015) come the findings set out here.

By IC50 is commonly meant the concentration at which inhibition is half-maximal.

For experiment [1], the target named is T1, TBK1 (Homo sapiens, UniProt Q9UHD2).
T1 construct: His-tag; made in house; host or cells: Sf9 insect cells
T1 sequence (Q9UHD2 1-729): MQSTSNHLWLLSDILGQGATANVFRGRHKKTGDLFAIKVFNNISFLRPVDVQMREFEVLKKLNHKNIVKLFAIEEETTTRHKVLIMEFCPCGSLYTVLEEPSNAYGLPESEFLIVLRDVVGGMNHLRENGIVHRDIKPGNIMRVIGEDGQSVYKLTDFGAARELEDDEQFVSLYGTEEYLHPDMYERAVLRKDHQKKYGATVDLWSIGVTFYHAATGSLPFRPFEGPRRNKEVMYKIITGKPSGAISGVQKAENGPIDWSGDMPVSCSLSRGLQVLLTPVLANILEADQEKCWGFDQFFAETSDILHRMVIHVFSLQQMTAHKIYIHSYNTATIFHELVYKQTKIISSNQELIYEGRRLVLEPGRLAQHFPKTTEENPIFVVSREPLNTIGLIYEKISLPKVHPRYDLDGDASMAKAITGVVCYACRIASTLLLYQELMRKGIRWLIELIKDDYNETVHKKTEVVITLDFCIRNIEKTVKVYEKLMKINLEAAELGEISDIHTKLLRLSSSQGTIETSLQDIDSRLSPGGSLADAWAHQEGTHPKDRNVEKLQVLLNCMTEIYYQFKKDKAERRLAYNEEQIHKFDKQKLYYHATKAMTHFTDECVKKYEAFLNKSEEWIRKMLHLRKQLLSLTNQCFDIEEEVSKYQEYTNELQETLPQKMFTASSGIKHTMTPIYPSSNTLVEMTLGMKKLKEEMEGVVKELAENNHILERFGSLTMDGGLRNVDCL
In words: In-vitro TBK1 kinase assay ([γ33]ATP filter-plate). The class given is biochemical. A digest of the protocol:
(§1)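 His-tagged Sf9-expressed kinases at 0.1 or 0.02 μg/ml (TBK1) and 0.1 or 0.015 μg/ml (IKKε) for normal and sensitized formats, with myelin basic protein or casein substrate. ATP was at 2×Km (60 μM TBK1, 32 μM IKKε) plus 0.3 μCi [γ33]ATP. Reactions ran 30-45 min, were captured on P-81 filters, and counts were normalized to DMSO.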

For experiment [2], the target named is T2, IKKε (Homo sapiens, UniProt Q14164).
T2 construct: His-tag; made in house; host or cells: Sf9 insect cells
T2 sequence (Q14164 1-716): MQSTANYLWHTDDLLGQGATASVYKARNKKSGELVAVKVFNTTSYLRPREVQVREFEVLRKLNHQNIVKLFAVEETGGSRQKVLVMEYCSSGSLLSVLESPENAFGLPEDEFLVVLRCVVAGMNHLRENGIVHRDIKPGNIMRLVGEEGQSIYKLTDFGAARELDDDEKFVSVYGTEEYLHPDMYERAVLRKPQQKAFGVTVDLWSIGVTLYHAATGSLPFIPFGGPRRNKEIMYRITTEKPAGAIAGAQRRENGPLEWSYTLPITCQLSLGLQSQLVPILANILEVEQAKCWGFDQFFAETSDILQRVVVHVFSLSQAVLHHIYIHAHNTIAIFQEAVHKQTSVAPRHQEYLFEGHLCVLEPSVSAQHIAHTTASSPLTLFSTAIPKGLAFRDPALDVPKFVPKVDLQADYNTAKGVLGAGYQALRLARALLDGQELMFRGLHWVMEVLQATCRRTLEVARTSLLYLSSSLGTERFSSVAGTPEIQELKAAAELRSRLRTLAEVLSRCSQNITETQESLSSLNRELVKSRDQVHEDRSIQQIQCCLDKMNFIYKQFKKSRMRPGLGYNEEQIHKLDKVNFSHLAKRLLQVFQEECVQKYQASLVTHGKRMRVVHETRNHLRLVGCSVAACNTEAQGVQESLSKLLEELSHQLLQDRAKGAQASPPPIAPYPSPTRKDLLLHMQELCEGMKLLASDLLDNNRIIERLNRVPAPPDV
In words: In-vitro IKKε kinase assay ([γ33]ATP filter-plate). Format: biochemical. A digest of the protocol: as §1

Setting [3] is: text bins, read-out: IC50 for inhibition of the kinase activity of TBK1.
Where [4] appears, read: text bins, read-out: IC50 for inhibition of the kinase activity of IKKε.

Where two headings read alike, the source gives them in different places.

Turning to `COc1cc(Nc2nccc(-c3ccc(OC4CCOCC4)c(C#N)c3)n2)ccc1C(=O)N1CC2CC1CN2` (centres unmarked) [compound 496, 5-(2-{[4-(2,5-diazabicyclo[2.2.1]hept-2-ylcarbonyl)-3-methoxyphenyl]amino}pyrimidin-4-yl)-2-(tetrahydro-2H-pyran-4-yloxy)benzonitrile], the figures for the concentration for half-maximal inhibition (IC50) in experiment [1] (setting [3]) and in experiment [2] (setting [4]) were under 10 nM and under 5 nM, respectively.
On the same counts, the results for `CN1CCN(S(=O)(=O)c2ccc(Nc3nccc(-c4ccc(OC5CCOCC5)c(C#N)c4)n3)cc2)CC1` [Example 284, 5-[2-({4-[(4-methylpiperazin-1-yl)sulfonyl]phenyl}amino)pyrimidin-4-yl]-2-(tetrahydro-2H-pyran-4-yloxy)benzonitrile] are under 10 nM and 5 to 50 nM.
With `N#Cc1cc(-c2ccnc(Nc3ccc(N4CCOCC4)cc3)n2)ccc1OCC1CCNC1` (centres unmarked) [compound 456, 5-(2-{[4-(morpholin-4-yl)phenyl]amino}pyrimidin-4-yl)-2-(pyrrolidin-3-ylmethoxy) benzonitrile], the IC50 in experiment [1] (setting [3]) was under 10 nM; in experiment [2] (setting [4]) it was 5 to 50 nM.
Taken in the same sequence, the figures for `CC(C)C(=O)Nc1ccc(-c2ccnc(Nc3ccc(CC(=O)N4CCOCC4)cc3)n2)cc1C#N` [compound 419, N-{2-cyano-4-[2-({4-[2-(morpholin-4-yl)-2-oxoethyl]phenyl}amino)pyrimidin-4-yl]phenyl}-2-methylpropanamide] were 10 to 100 nM and 5 to 50 nM.
In the case of `COc1cc(Nc2nccc(-c3ccc(OC4CCOCC4)c(C#N)c3)n2)ccc1S(=O)(=O)NCCCN(C)C` [Example 237, 4-({4-[3-cyano-4-(tetrahydro-2H-pyran-4-yloxy)phenyl]pyrimidin-2-yl}amino)-N-[3-(dimethylamino)propyl]-2-methoxybenzene-sulfonamide], the results for the IC50 in experiment [1] (setting [3]) and in experiment [2] (setting [4]) were under 10 nM and under 5 nM, respectively.
For the compound `CC(=O)NCCCOc1ccc(-c2ccnc(Nc3ccc(N4CCOCC4)cc3)n2)cc1C#N` [Example 149, N-{3-[2-cyano-4-(2-{[4-(morpholin-4-yl)phenyl]amino}pyrimidin-4-yl)phenoxy]propyl} acetamide], the IC50 lay in the range of 10 to 100 nM in experiment [1] (setting [3]) and 5 to 50 nM in experiment [2] (setting [4]).
On to `COc1ccc(-c2ccnc(Nc3ccc(S(=O)(=O)NCCCO)c(OC)c3)n2)cc1C#N` [compound 303, 4-{[4-(3-Cyano-4-methoxyphenyl)pyrimidin-2-yl]amino}-N-(3-hydroxypropyl)-2-methoxybenzene-sulfonamide], for which the half-maximal inhibitory concentration (IC50) was in the range of 10 to 100 nM in experiment [1] (setting [3]) and 5 to 50 nM in experiment [2] (setting [4]).
Taken in the same sequence, the figures for `COc1ccc(-c2ccnc(Nc3ccc(OC4CCN(C)CC4)c(OC)c3)n2)cc1C#N` [compound 302, 2-Methoxy-5-[2-({3-methoxy-4-[(1-methylpiperidin-4-yl)oxy]phenyl}amino)pyrimidin-4-yl]benzonitrile] were 10 to 100 nM and 5 to 50 nM.
For the compound `COc1cc(NC(=O)NCCCN)cc(Nc2nccc(-c3ccc(OC)c(C#N)c3)n2)c1` [compound 320, 1-(3-Aminopropyl)-3-(3-{[4-(3-cyano-4-methoxyphenyl)pyrimidin-2-yl]amino}-5-methoxyphenyl)urea], the results for the half-inhibitory concentration (IC50) in experiment [1] (setting [3]) and in experiment [2] (setting [4]) were 10 to 100 nM and 50 to 500 nM, respectively.
For `COc1ccc(-c2ccnc(Nc3ccc(CN(C)C)cc3)n2)cc1C#N` [Example 45, 5-[2-({4-[(Dimethylamino)methyl]phenyl}amino)pyrimidin-4-yl]-2-methoxybenzonitrile], the values for the IC50 in experiment [1] (setting [3]) and in experiment [2] (setting [4]) were 10 to 100 nM and 50 to 500 nM, respectively.
For `COc1ccc(-c2ccnc(Nc3ccc(S(=O)(=O)NCCCN)c(OC)c3)n2)cc1C#N` [compound 383, N-(3-Aminopropyl)-4-{[4-(3-cyano-4-methoxyphenyl)pyrimidin-2-yl]amino}-2-methoxybenzene-sulfonamide], the results for the concentration for half-maximal inhibition (IC50) in experiment [1] (setting [3]) and in experiment [2] (setting [4]) were 10 to 100 nM and 5 to 50 nM, respectively.
On to `N#Cc1cc(-c2ccnc(Nc3ccc(N4CCOCC4)cc3)n2)ccc1OCC[C@H]1CCCCN1C(=O)CO` [compound 448, 2-{2-[(2R)-1-(hydroxyacetyl)piperidin-2-yl]ethoxy}-5-(2-{[4-(morpholin-4-yl)phenyl]amino}pyrimidin-4-yl)benzonitrile], for which the IC50 in experiment [1] (setting [3]) fell in the range of 10 to 100 nM; in experiment [2] (setting [4]) it was 50 to 500 nM.
Taken in the same sequence, the figures for `CC(C)C(=O)Nc1ccc(-c2ccnc(Nc3ccc(CC(=O)NCCCN4CCOCC4)cc3)n2)cc1C#N` [compound 420, N-[2-cyano-4-(2-{[4-(2-{[3-(morpholin-4-yl)propyl]amino}-2-oxoethyl)phenyl]amino}pyrimidin-4-yl)phenyl]-2-methylpropanamide] were 10 to 100 nM and 5 to 50 nM.
Take `COc1cc(Nc2nccc(-c3ccc(OC4CCN(C(=O)[C@H](C)O)CC4)c(C#N)c3)n2)ccc1C(=O)NCCCN(C)C` [compound 376, 4-({4-[3-cyano-4-({1-[(2S)-2-hydroxypropanoyl]piperidin-4-yl}oxy)phenyl]pyrimidin-2-yl}amino)-N-[3-(dimethylamino)propyl]-2-methoxybenzamide]: the half-inhibitory concentration (IC50) in experiment [1] (setting [3]) was under 10 nM; in experiment [2] (setting [4]) it was under 5 nM.
Taken in the same sequence, the figures for `CC(C)C(=O)Nc1ccc(-c2ccnc(Nc3ccc(CCN4CCOCC4)cc3)n2)cc1C#N` [compound 463, N-{2-cyano-4-[2-({4-[2-(morpholin-4-yl)ethyl]phenyl}amino)pyrimidin-4-yl]phenyl}-2-methylpropanamide] were 10 to 100 nM and 5 to 50 nM.
In the case of `COc1ccc(-c2ccnc(Nc3cccc(S(N)(=O)=O)c3)n2)cc1C#N` [compound 346, 3-{[4-(3-Cyano-4-methoxyphenyl)pyrimidin-2-yl]amino} benzenesulfonamide], the concentration for half-maximal inhibition (IC50) in experiment [1] (setting [3]) fell in the range of 10 to 100 nM; in experiment [2] (setting [4]), 5 to 50 nM.
On the same counts, the results for `C[C@H](O)C(=O)N1CCC(COc2ccc(-c3ccnc(Nc4ccc(N5CCOCC5)cc4)n3)cc2C#N)CC1` [Example 152, 2-({1-[(2S)-2-hydroxypropanoyl]piperidin-4-yl}methoxy)-5-(2-{[4-(morpholin-4-yl)phenyl]amino}pyrimidin-4-yl)benzonitrile] are 10 to 100 nM and 5 to 50 nM.
For the compound `N#Cc1cccc(-c2ccnc(Nc3ccc(N4CCOCC4)cc3)n2)c1` [compound 322, 3-(2-{[4-(Morpholin-4-yl)phenyl]amino}pyrimidin-4-yl)benzonitrile], the concentration for half-maximal inhibition (IC50) in experiment [1] (setting [3]) lay within 10 to 100 nM; in experiment [2] (setting [4]), 50 to 500 nM.
In the case of `N#Cc1cc(-c2ccnc(Nc3ccc(N4CCOCC4)cc3)n2)ccc1OC1CCN(S(N)(=O)=O)CC1` [Example 80, 4-[2-cyano-4-(2-{[4-(morpholin-4-yl)phenyl]amino}pyrimidin-4-yl)phenoxy]piperidine-1-sulfonamide], the IC50 in experiment [1] (Table 3, read-out: TBK1 IC50) was 0.4 nM; in experiment [1] (setting [3]), under 10 nM; in experiment [2] (Table 3, read-out: IKKε IC50), 0.8 nM; in experiment [2] (setting [4]) it was under 5 nM.
For the compound `COc1cc(Nc2nccc(-c3ccc(OC4CCN(C(=O)[C@H](C)O)C4)c(C#N)c3)n2)ccc1N1CCOCC1` (stereo partly drawn) [Example 116, 2-({1-[(2S)-2-hydroxypropanoyl]pyrrolidin-3-yl}oxy)-5-(2-{[3-methoxy-4-(morpholin-4-yl)phenyl]amino}pyrimidin-4-yl)benzonitrile], the IC50 was under 10 nM in experiment [1] (setting [3]) and 5 to 50 nM in experiment [2] (setting [4]).
Take `COc1cc(NC(=O)NCCCO)cc(Nc2nccc(-c3ccc(OC)c(C#N)c3)n2)c1` [compound 315, 1-(3-{[4-(3-Cyano-4-methoxyphenyl)pyrimidin-2-yl]amino}-5-methoxyphenyl)-3-(3-hydroxypropyl)urea]: the concentration for half-maximal inhibition (IC50) in experiment [1] (setting [3]) was under 10 nM; in experiment [2] (setting [4]) it was 5 to 50 nM.
